Assay results: patent US7321046B2, “Analogs of dictyostatin, intermediates therefor and methods of synthesis thereof” (University of Pittsburgh, priority 2002, dated 2008)
Like-named read-outs stand apart in the source and are kept apart here.

What was measured:
[1] = system: human ovarian carcinoma cells (1A9); test: Antiproliferative assay (GI50, MTS); type: cell-based; settings: for antiproliferative potency / GI50 values (in words): Table 1 (1A9 and mutant lines)
Description: Representative analogs were examined for their antiproliferative activities against human ovarian carcinoma 1A9 cells and their paclitaxel-resistant mutants, 1A9/Ptx10 and 1A9/Ptx22.
[…] Cells were maintained in RPMI medium with 10% FBS in it, plated in tissue culture plates, and allowed to grow for 48-72 h before transferring them into 96-well plates. Cells were allowed to attach and grow for 48 h in 96-well plates after which they were treated with either control (DMSO) or drug in triplicate/quadruplicate. Cells were incubated with the compounds for 72 h. Cells were treated with MTS reagent before reading the plate in a Dynamax plate reader for determining the cell number. The fifty percent growth inhibition values (GI50 values) were calculated for the compounds against all the three cell lines.

[2] = system: T1, Bovine brain tubulin; test: Pelleting assay (tubulin assembly EC50 determination); type: biochemical; settings: for % Tubulin polymerized by 50 μM test agent / EC50: tubulin 10 μM in 0.2 M MSG, 15 min at 20° C.; for EC50: concentration required to polymerize 50% of tubulin, read-out: EC50 (μM) ± SD (N)
T1 construct: Bovine brain tubulin (10 μM) in 0.2 M MSG, 15 min at 20° C
Description: Dictyostatin and representative analogs were evaluated in a quantitative assay for their ability to promote tubulin polymerization. […] When the percent polymer formed was determined in the reactions, a comparison of the activities of all the analogs could be made.
The assay was performed under three different reaction conditions following the procedure reported earlier (Gapud et al., 2004). Reaction condition 1 included 0.2 M monosodium glutamate (MSG), 10 μM tubulin, 5% DMSO and varying concentrations of test agents. Reaction condition 2 included 0.8 M MSG, 400 μM GTP, 10 μM tubulin, 5% DMSO, and varying concentrations of test agents. Reaction condition 3 had 0.6 M MSG, 200 μM GTP, and 10 μM tubulin, and 5% DMSO, and varying concentrations of the test agents. The experimental protocol for all the three reaction conditions was the following. The reaction mixtures were incubated at room temperature (20-22° C.) for 15 min and spun for 10 min at 14,000 rpm in an Eppendorf microtube centrifuge. Aliquots of the supernatants were removed and assayed for protein content by the method of Lowry.

[3] = system: purified bovine brain tubulin; test: Tubulin polymerization assay (turbidity); type: biochemical; settings: tubulin 1 mg/mL ± MAPs ± GTP, agents at 10 and 40 μM, 0 to 30° C.
Description: The abilities of the new compounds to cause tubulin polymerization were determined under reaction conditions consisting of purified bovine brain tubulin (1 mg/mL) in the presence or absence of microtubule-associated proteins (MAPs, 0.75 mg/mL) and GTP (100 μM). Test agents were initially screened at 10 and 40 μM. In these experiments, test agent-induced assembly of soluble tubulin into polymer, with respect to the presence and absence of cofactors and at different temperatures, was monitored in a multi-cuvette, temperature-controlled spectrophotometer via development of turbidity in the solution. The initial temperature was closely controlled at 0° C., then rapidly raised to 10° C., to 20° C., then finally to 30° C. to determine both the temperature at which a test agent induced assembly as well as the extent of agent-induced assembly. The temperature increases were followed by a rapid decrease in temperature back to 0° C. to determine the cold-stability of polymer formed.
Tubulin assembly was monitored turbidimetrically in Gilford 250 spectrophotometers equipped with electronic temperature controllers as described previously (ter Haar et al., 1996). The reaction mixtures without the compounds consisted of tubulin (1 mg/ml), heat-treated MAPs (0.75 mg/ml, if present), GTP (100 μM, if present), and 0.1M (4-morpholinyl)ethane sulfonate (MeS). Baselines were established after addition of all reaction components except the compounds to the cuvettes held at 0° C. Compounds, at 10 μM or 40 μM final concentration, were then added and each reaction mixture (0.25 mL final volume) was subjected to the indicated temperature changes.

[4] = Homo sapiens, Ovarian carcinoma cell, 72 h, read-out: GI50 ± S.D., 1A9 parental cells, 72 h incubation

C=C/C=C\[C@H](C)[C@H](OC(N)=O)[C@@H](C)[C@H](O)[C@@H](C)C/C(C)=C\[C@H](C)[C@@H](O)[C@@H](C)/C=C\[C@@H](O)C[C@@H]1OC(=O)[C@H](C)[C@@H](O)[C@H]1C [discodermolide, reference compound]
GI50 [1, 4]: 1.7 ± 1.2 nM | % Tubulin polymerized by 50 μM test agent [2]: 98 ± 5% | EC50 [2]: 3.6 ± 0.4 µM | test agent-induced tubulin assembly, turbidity profile (in words) [3]: far more potent than those of paclitaxel

C=CC=CC(C)C1OC(=O)C=CC=CC(C)C(O)CC(O)C=CC(C)C(O)C(C)CC(C)CCC(O)C1C [Compound 59, (8S,10S,14R,20S)-Tetrahydroxy-(7R,13S,15S,17S,21s)-pentamethyl-(22S)-((1S)-methylpenta-2,4-dienyl)-oxacyclodocosa-3,5,11-trien-2-one]
antiproliferative potency / GI50 values (in words) [1]: mid-nanomolar range | GI50 ([1]; read-out: GI50 ± S.D., 1A9 parental cells, 72 h incubation): 21 ± 14 nM | percent polymer formed (in words) [2]: moderate activity | % Tubulin polymerized by 50 μM test agent [2]: 30 ± 2% | EC50 [2]: > 50 µM | test agent-induced tubulin assembly, turbidity profile (in words) [3]: caused tubulin assembly at temperatures lower than 30 °C

C=C/C=C\[C@H](C)[C@H](O)[C@@H](C)[C@H](O)CC[C@H](C)C[C@H](C)[C@@H](O)[C@@H](C)/C=C\[C@@H](O)C[C@H](O)[C@H](C)/C=C/C=C\C(=O)OC [Compound 50, (2Z,4E,6R,7S,9S,10Z,12S,13R,14S,16S,19R,20S,21S,22S,23Z)-Methyl-7,9,13,19,21-penta-hydroxy-6,12,14,16,20,22-hexamethylhexacosa-2,4,10,23,25-pentaenoate]
GI50 [1, 4]: 56 ± 16 nM | antiproliferative potency / GI50 values (in words) [1]: mid-nanomolar range | percent polymer formed (in words) [2]: moderate activity | % Tubulin polymerized by 50 μM test agent [2]: 39 ± 7% | EC50 [2]: > 50 µM | test agent-induced tubulin assembly, turbidity profile (in words) [3]: caused tubulin assembly at temperatures lower than 30 °C

C=C/C=C\[C@H](C)[C@@H]1OC(=O)/C=C\C=C\[C@@H](C)[C@@H](O)C[C@H](O)/C=C\[C@H](C)[C@H](O)[C@@H](C)C[C@@H](C)CC[C@@H](O)[C@@H]1C [dictyostatin-1, (8S,10S,14R,20R)-Tetrahydroxy-(7R,13S,15S,17S,21S)-pentamethyl-(22S)-((1S)-methylpenta-2,4-dienyl)oxacyclodocosa-3,5,11-trien-2-one, reference compound]
GI50 [1, 4]: 0.69 ± 0.8 nM | % Tubulin polymerized by 50 μM test agent [2]: 99 ± 4% | EC50 [2]: 3.1 ± 0.2 µM | test agent-induced tubulin assembly, turbidity profile (in words) [3]: far more potent than those of paclitaxel

C=CC=CC(C)C1OC(=O)C=CC=CC(C)C(O)CC(O)C=CC(C)C(O)C(C)CCCCC(O)C1C [Compound 79, (8S,10S,14R,20R)-Tetrahydroxy-(7R,13S,15S,21S)-tetramethyl-(22S)-((1S)-methylpenta-2,4-dienyl)-oxacyclodocosa-3,5,11-trien-2-one]
GI50 [1, 4]: 0.41 ± 0.52 nM | antiproliferative potency / GI50 values (in words) [1]: essentially equipotent to 1 | % Tubulin polymerized by 50 μM test agent [2]: 91 ± 6% | EC50 [2]: 14 ± 7 µM | test agent-induced tubulin assembly, turbidity profile (in words) [3]: especially potent among the analogs
